For series [1], the system named is vaginal epithelium of BALB/c mice. The series can be described thus: BALB/c mice vaginal irritation test with histological score. Also on record: key to Epithelial lesion / Inflammatory infiltrate / Vascular congestion / Edema/fibrosis / Total Score: 0 (no change) when no injury or the observed changes were within normal range; 1 (minimum) when changes were sparse but exceeded those considered normal; 2 (light) when injuries were identifiable but with no severity; 3 (moderate) for significant injury that could increase in severity; 4 (very serious) for very serious injuries that occupy most of the analyzed tissue. The class given is in vivo. As to conditions: for Edema/fibrosis / Epithelial lesion / Inflammatory infiltrate / Vascular congestion / Total Score: 3% N9 intravaginally, 7 days (irritation control); for Total Score: sum of the four lesion scores. The method, then: Female BALB/c mice (6–8 weeks-old) (Charles River Laboratories, Wilmington, MA) were pretreated subcutaneously with 2mg of medroxyprogesterone acetate (Depo-Provera; Pfizer, NY, USA) in PBS (Lonza, Verviers, Belgium). After five days, 30μl of test formulation with different doses of P3 diluted in PBS was applied intravaginally daily for 7 days by vaginal gavage to animals previously anesthetized with isoflurane (Forane, Abbott, Madrid). Controls included mice that received PBS (placebo group) and 3% nonoxynol-9 (N9) in PBS (irritation control group). On the eighth day, mice were sacrificed and genital tract tissue were extracted and fixed in 4% paraformaldehyde for histological analysis. The animals were distributed in groups of three mice each: group placebo only treated with PBS (1–3), group A treated with dose of 0.06mg/day ([…]) of P3 in PBS (4–6), group B treated with dose of 0.2mg/day (1522.7 μM) of P3 in PBS (7–9), group C treated with dose of 0.4mg/day (3045.3 μM) of P3 in PBS (10–12) and group irritation control treated with 3% N9 in PBS (13–15).
The presence of histological lesions in the mouse vaginas was evaluated with hematoxylin-eosin staining. Samples were embedded in paraffin by submersion in increasing concentrations of ethanol in water (Rectapur, VWR, England), two baths of xylene (Analar (VWR, England) and another of paraffin, before being placed in a paraffin mold. Subsequently, they were cut using a semimotorized microtome (RM2145 Leica, Germany) and processed for staining. For dewaxing, samples were submersed into two baths of xylene solution (10 min) and three baths in descending order of ethanol (100%, 90% and 70%) (5 min), before being stained with hematoxylin (Merck, Germany) for 5 min and eosin (Merck, Germany) for another 5 min. Post-eosin staining dehydration was performed with passages in increasing concentrations of ethanol (70%, 90% and 100%) and a bath of xylene solution. Finally, they were mounted with D.P.X. (Prolabo, VWR, Spain).
The existence of injury in vaginal epithelium, inflammatory infiltrate, vascular congestion and/or edema in the submucosa was evaluated in each biological sample. The values (score) assigned for each of these lesions were: 0 (no change) when no injury or the observed changes were within normal range; 1 (minimum) when changes were sparse but exceeded those considered normal; 2 (light) when injuries were identifiable but with no severity; 3 (moderate) for significant injury that could increase in severity; 4 (very serious) for very serious injuries that occupy most of the analyzed tissue. These values were added up and determined the level of vaginal irritation as minimum 1–4, average 5–8, moderate 9–11 and severe 12–16 [34].

For series [2] the following is noted: at temperatures higher than 40 °C; cited from earlier work. The procedure: Microbicides must be stable at 37°C for a long period of time since it is the body temperature, and at 65 °C since some manufacturing processes may require high temperatures. Stability at room temperature or at 4 °C is also important since the storage at these temperatures is easier for the user and more affordable than at -20 °C. No statistically significance differences were observed on the anti-HIV-1 activity of P3 peptide stored at 25, 37 and 65 °C for a period of a week. The stability of P3 under different temperatures is much better than other peptide-based microbicide candidates or d ...

`CCCCCCCCCc1ccc(OCCOCCOCCOCCOCCOCCOCCOCCOCCO)cc1` [N9, nonoxynol-9, reference compound]: the “level of irritation of the vaginal wall” value in series [1] (3% N9 in PBS daily for 7 days, three samples) is reported as “average (average 5–8)”. In series [1] (mouse 13), this compound gave an Edema/fibrosis of 0, an Epithelial lesion of 3, an Inflammatory infiltrate of 3 and a Vascular congestion of 2. Also, the “Total Score” value in series [1] (mouse 13) worked out at 8. In series [1] (mouse 14), the Edema/fibrosis is recorded as 0, the Epithelial lesion is 2, the Inflammatory infiltrate stood at 3 and the Vascular congestion was 2. For the same compound, in series [1] (mouse 14), the “Total Score” value is 7. In series [1] (mouse 15), this compound registered an Edema/fibrosis of 0, an Epithelial lesion of 3, an Inflammatory infiltrate of 3 and a Vascular congestion of 2. The “Total Score” value in series [1] (mouse 15) is reported as 8.
Take Spantide II: the thermal stability entry in series [2] is on record as “not stable”.

Values taken from PMC5905968, “Evaluation of the fusion inhibitor P3 peptide as a potential microbicide to prevent HIV transmission in women” (PLoS ONE, 2018).
